Data set [1] relates to Trypanosoma cruzi. Kind of data set: Trypanocidal activity against Trypanosoma cruzi Y epimastigotes […] assessed as growth inhibition of parasite measured on day 5. Type of data set: functional, organism-based. As to conditions: 120 h.
The test system of a further data set is J774. Nature of the data set: Cytotoxicity against mouse J774 cells assessed as cell viability after 48 hrs by MTT assay. Type of data set: cell-based. The conditions noted are these: J774, 48 h. (Formazan colour is commonly taken as a measure of viable cells.)
The test system of data set [2] is Trypanosoma cruzi. Kind of data set: Trypanocidal activity against Trypanosoma cruzi Y epimastigotes […] assessed as growth inhibition of parasite at 10 uM measured on day 5. It is filed as functional. The conditions noted are these: 120 h, read-out: GI.
Data set [3] is described as follows: Selectivity index, ratio of IC50 for mouse J774A cells to IC50 for Trypanosoma cruzi Y epimastigotes. Type of data set: toxicity, cell-based. As to conditions: J774A cells versus Trypanosoma cruzi Y epimastigotes, read-out: Ratio IC50.
The subject of data set [4] is Trypanosoma cruzi. Nature of the data set: microbe, parasite or virus in culture. As to conditions: Y, J774, in Mus musculus, 120 h, read-out: GI.
Description: Trypanocidal activity against Trypanosoma cruzi Y epimastigotes infected in mouse J774 cells assessed as growth inhibition of parasite at 5 uM measured on day 5

Molecules are shown by their SMILES.

Take `O=C1C=C(Oc2ccccc2)C(=O)c2ccccc21`: the IC50 with Trypanosoma cruzi [1] worked out at 0.05 µM; in the data set with J774, 12.5 µM. In the data set on Trypanosoma cruzi [2], the inhibition of growth at 10 µM came to 87.2%. In data set [3], the selectivity ratio was found to be 250.

On to `CCOC(=O)c1cc2c(OC)cc(Br)c(OC)c2[nH]1`, for which, in the data set with Trypanosoma cruzi [2], the inhibition of growth at 10 µM was found to be 26.9%.

Consider `CCOC(=O)c1cc2c(OC)cc(Br)c(OC)c2n1CC`, for which, in the data set on Trypanosoma cruzi [2], the inhibition of growth at 10 µM came to 2.9%.

Turning to `CCOC(=O)c1cc2c(n1CC)C(=O)C(Br)=CC2=O`, the IC50 with Trypanosoma cruzi [1] amounted to 0.53 µM. Moreover, the inhibition of growth at 10 µM in the data set with Trypanosoma cruzi [2] was 97.1%.

As to `CCOC(=O)c1cc2c(n1CC)C(=O)C(Oc1ccccc1)=CC2=O`, the values for the concentration for half-maximal inhibition (IC50) in the data set with Trypanosoma cruzi [1] and in the data set on J774 were 0.22 µM and 22 µM, respectively. Besides, in the data set with Trypanosoma cruzi [2], the inhibition of growth at 10 µM was 84.7%. The selectivity ratio in data set [3] was found to be 100.

On to `CCOC(=O)c1cc2c(n1CC)C(=O)C(Oc1ccc(C)cc1)=CC2=O`, for which the IC50 in the data set on Trypanosoma cruzi [1] stood at 0.02 µM. Moreover, the inhibition of growth at 10 µM in the data set on Trypanosoma cruzi [2] came to 92.1%.

On to `CCOC(=O)c1cc2c(n1CC)C(=O)C(Oc1ccccc1C)=CC2=O`, for which the IC50 with Trypanosoma cruzi [1] stood at 0.14 µM; with J774, 12.5 µM. Further, the inhibition of growth at 10 µM in the data set on Trypanosoma cruzi [2] stood at 100%. Besides, the selectivity ratio in data set [3] stood at 89.3.

Consider `CCOC(=O)c1cc2c(n1CC)C(=O)C(Oc1ccc(OC)cc1)=CC2=O`, for which the IC50 in the data set with Trypanosoma cruzi [1] is 0.02 µM; in the data set on J774, 12.5 µM. For the same molecule, the inhibition of growth at 10 µM in the data set on Trypanosoma cruzi [2] came out at 90.5%. For the same molecule, the selectivity ratio in data set [3] stood at 625.

Consider `CCOC(=O)c1cc2c(n1CC)C(=O)C(Oc1ccc(Cl)cc1)=CC2=O`, for which the IC50 with Trypanosoma cruzi [1] is 0.13 µM. Moreover, in the data set with Trypanosoma cruzi [2], the inhibition of growth at 10 µM was 94.6%.

As for `CC1CS(=O)(=O)CCN1/N=C/c1ccc([N+](=O)[O-])o1` (configuration not stated) [NIFURTIMOX], the inhibition of growth at 5 µM with Trypanosoma cruzi [4] was determined as 49.9%. Moreover, the IC50 in the data set on Trypanosoma cruzi [1] is 7 µM. The selectivity ratio in data set [3] was 40.

As usually defined, the IC50 is the concentration that inhibits the measured activity by half.

Source of the values: ChEMBL document CHEMBL3351842, “Synthesis and biological characterization of new aryloxyindole-4,9-diones as potent trypanosomicidal agents” (Bioorg Med Chem Lett, 2014).
